Results taken from ChEMBL document CHEMBL4376854, “Investigation of the Adrenergic and Opioid Binding Affinities, Metabolic Stability, Plasma Protein Binding Properties, and Functional Effects of Selected Indole-Based Kratom Alkaloids” (J Med Chem, 2020).
Active and inactive are the calls of the source. No cut-off for these calls is given here.

What was measured:
Rattus norvegicus [1] = experiment: Antinociceptive activity in Sprague-Dawley rat dosed intravenously using cumulative dosing every 5 mins until rat maxed-out on hot plate by hot plate test relative to control; assay type: functional
Mu-type opioid receptor = Mu-type opioid receptor (Homo sapiens, UniProt P35372); conditions: HEK293, 10000 nM
Sequence of Mu-type opioid receptor (P35372 whole entry): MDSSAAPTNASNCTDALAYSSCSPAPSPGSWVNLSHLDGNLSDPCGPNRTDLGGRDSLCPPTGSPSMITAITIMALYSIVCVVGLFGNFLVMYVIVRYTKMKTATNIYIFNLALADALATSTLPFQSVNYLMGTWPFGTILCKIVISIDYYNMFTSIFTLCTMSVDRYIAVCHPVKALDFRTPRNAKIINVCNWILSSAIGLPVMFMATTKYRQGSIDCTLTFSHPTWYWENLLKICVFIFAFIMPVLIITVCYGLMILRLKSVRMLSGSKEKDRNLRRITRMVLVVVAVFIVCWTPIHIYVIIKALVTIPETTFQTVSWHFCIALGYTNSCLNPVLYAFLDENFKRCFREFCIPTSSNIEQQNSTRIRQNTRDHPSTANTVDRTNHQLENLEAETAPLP

Rattus norvegicus [2] = experiment: Antinociceptive activity in Sprague-Dawley rat dosed intravenously using cumulative dosing every 5 mins until rat maxed-out on hot plate co-treated with 0.1 mg/kg naltrexone by hot plate test; assay type: functional, organism-based
[3] = biological target: T1, Alpha-1A adrenergic receptor (Homo sapiens) (UniProt P35348); conditions: CHO, 10000 nM
T1 sequence (whole entry): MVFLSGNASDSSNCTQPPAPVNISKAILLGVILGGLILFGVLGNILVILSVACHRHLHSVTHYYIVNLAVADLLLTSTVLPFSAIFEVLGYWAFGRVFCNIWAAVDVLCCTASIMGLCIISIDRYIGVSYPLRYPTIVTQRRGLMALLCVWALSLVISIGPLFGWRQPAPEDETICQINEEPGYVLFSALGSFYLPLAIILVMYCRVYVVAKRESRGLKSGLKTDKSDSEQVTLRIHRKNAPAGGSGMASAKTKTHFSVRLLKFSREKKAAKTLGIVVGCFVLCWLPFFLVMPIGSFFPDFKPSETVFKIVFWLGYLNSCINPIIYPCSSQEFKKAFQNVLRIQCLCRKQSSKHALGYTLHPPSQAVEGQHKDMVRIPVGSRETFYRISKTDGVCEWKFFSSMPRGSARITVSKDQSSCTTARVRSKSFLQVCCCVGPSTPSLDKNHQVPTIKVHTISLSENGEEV

[4] = biological target: T2, Alpha-1B adrenergic receptor (Homo sapiens) (UniProt P35368); conditions: CHO, 10000 nM
T2 sequence (whole entry): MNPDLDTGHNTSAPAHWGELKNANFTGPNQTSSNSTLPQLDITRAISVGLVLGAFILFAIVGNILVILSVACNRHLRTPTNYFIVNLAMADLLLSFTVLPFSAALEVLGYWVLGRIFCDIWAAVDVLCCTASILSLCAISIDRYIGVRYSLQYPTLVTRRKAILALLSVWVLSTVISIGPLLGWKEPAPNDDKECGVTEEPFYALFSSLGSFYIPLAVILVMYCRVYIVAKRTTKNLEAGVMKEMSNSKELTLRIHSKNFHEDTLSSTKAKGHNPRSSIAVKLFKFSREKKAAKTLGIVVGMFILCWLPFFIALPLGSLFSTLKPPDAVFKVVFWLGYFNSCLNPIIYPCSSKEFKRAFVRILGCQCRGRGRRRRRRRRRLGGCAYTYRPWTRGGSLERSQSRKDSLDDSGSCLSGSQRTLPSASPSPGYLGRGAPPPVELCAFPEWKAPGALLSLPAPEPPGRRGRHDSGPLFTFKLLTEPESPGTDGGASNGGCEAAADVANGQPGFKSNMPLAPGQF

[5] = human, microsomes, 1 µM
[6] = biological target: T3, Kappa-type opioid receptor (Homo sapiens, UniProt P41145); conditions: 100 nM
T3 sequence (P41145 whole entry): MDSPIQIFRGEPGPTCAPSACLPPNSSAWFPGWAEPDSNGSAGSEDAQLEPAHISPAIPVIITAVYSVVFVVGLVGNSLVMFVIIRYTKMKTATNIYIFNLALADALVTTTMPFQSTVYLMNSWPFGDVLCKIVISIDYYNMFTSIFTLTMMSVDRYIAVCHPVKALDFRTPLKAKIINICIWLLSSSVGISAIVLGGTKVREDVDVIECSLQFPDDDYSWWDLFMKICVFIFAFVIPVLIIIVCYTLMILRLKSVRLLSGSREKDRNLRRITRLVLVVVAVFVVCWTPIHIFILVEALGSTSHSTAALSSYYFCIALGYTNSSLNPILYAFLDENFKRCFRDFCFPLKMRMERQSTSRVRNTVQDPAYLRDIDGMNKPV

[7] = biological target: T4, Alpha-2A adrenergic receptor (Homo sapiens) (UniProt P08913); conditions: CHO, 100 nM
T4 sequence (whole entry): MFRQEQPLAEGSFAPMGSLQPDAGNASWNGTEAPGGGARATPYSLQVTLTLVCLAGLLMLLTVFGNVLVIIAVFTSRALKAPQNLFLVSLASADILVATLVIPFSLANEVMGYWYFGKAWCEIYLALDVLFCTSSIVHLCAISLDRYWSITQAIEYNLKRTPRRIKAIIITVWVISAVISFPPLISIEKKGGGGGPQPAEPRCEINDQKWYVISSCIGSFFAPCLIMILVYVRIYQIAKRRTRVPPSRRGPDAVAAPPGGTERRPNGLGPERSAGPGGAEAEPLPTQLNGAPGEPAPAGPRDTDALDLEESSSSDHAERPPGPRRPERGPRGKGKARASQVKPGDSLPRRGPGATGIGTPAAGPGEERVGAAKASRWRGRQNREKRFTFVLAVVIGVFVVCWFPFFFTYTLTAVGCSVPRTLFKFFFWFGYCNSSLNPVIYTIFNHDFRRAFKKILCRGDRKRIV

[8] = biological target: T4, Alpha-2A adrenergic receptor (Homo sapiens); conditions: CHO, 10000 nM
[9] = biological target: T1, Alpha-1A adrenergic receptor (Homo sapiens); conditions: CHO, 100 nM
[10] = biological target: T5, Alpha-2B adrenergic receptor (Homo sapiens) (UniProt P18089); conditions: CHO, 10000 nM
T5 sequence (whole entry): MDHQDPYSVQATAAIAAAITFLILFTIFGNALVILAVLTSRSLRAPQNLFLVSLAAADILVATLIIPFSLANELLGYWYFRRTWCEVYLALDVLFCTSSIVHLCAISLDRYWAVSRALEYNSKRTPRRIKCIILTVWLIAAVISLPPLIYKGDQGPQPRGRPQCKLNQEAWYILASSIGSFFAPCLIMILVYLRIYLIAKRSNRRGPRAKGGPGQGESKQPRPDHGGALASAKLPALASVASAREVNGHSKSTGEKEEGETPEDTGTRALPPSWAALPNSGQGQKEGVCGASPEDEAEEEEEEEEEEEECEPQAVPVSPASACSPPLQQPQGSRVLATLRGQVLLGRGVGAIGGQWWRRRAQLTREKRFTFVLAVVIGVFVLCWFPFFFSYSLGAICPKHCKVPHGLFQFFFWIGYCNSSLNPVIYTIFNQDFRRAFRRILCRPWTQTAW

[11] = biological target: Nociceptin receptor (Homo sapiens) (UniProt P41146); conditions: 10000 nM
Sequence of Nociceptin receptor (Homo sapiens) (P41146 whole entry): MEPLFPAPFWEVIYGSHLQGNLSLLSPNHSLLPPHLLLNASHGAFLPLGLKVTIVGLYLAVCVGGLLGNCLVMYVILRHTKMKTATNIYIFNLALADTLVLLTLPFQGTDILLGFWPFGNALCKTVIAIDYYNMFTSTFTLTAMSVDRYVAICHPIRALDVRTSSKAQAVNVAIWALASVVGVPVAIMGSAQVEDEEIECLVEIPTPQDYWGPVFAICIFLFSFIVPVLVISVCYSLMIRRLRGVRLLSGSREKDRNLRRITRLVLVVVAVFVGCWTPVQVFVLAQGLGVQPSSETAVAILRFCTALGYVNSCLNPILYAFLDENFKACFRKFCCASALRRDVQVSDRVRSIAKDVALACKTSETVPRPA

[12] = biological target: T3, Kappa-type opioid receptor; experiment: Displacement of [3H]U69,593 from human recombinant kappa opioid receptor expressed in rat RBL cell membranes incubated for 60 mins
[13] = human, plasma, 1 µM
[14] = Toxicity in Sprague-Dawley rat assessed as induction of hypothermia at 0.0032 to 10 mg/kg, iv; assay type: organism-based; conditions: in vivo

SMILES | Emax (Rattus norvegicus [1]; Rattus norvegicus, Sprague-Dawley, iv, 5 min) | inhibition (Mu-type opioid receptor) | Activity (Rattus norvegicus [2]) | inhibition [3] | inhibition [4] | Fu [5] | inhibition [6] | inhibition [7] | inhibition [8] | inhibition [9] | inhibition [10] | inhibition [11] | Ki [12] | Fu [13] | Activity [14] | MPE (Rattus norvegicus [1])
CC[C@@H]1CN2CCc3c([nH]c4cccc(OC)c34)[C@@H]2C[C@@H]1/C(=C\OC)C(=O)OC | 17.3% | 93.7% | inactive | 83.5% | 40.3% | 0.307 | 25.2% | -8% | 40.4% | 13.2% | 25.1% | 40.8% | 198 nM | 0.02 | Non-Toxic | –
CC[C@@H]1CN2CCc3c([nH]c4cccc(OC)c34)[C@H]2C[C@@H]1/C(=C\OC)C(=O)OC | – | 98% | inactive | 81.1% | 95.6% | 0.276 | 61.9% | 7% | 73.1% | 16.8% | 67.2% | 31.8% | 116 nM | 0.01 | Toxic | 100%
